According to patent publication US20050279350A1, “Methods and apparatus for relieving headaches, rhinitis and other common ailments” (priority 1999, published 2005):

Tested on: mucous membrane of the nose, nasal passages, and mouth
Test: Effective and tolerable carbon dioxide flows found by the inventors (description)
Type: in vivo, human
Text: Furthermore, chronic inflammation of the mucosa and associated distress, caused by extended exposure to allergens and/or antigens, may be relieved within a few minutes by repeating such carbon dioxide applications. A possible mechanism of action of the above described local carbon dioxide treatment is the following. Creating a high concentration of carbon dioxide (hypercapnia) by infusing it into the nasal passages causes a very fast lowering of the pH (making more acidic) of the mucous membranes depressing the neuronal activity (inhibiting inflammatory mediator release such as histamine) of the nerves that supply the nasal mucous membranes and connect directly to the brainstem. Asthma is known to be a comorbid disease to allergic rhinitis. […] In addition, it is known that oxygenation is improved in patients with status asthmaticus, chronic obstructive pulmonary disease, and bronchiolitis by inhalation of helium. Also, inhaled nitric oxide improves the oxygenation and ventilation of most children with acute, hypoxic respiratory failure. For this reason, these respiratory ailments can be reduced or relieved by administering the above-described treatment using carbon dioxide or helium or nitric oxide. Furthermore, headaches (e.g., migraine headaches, tension-type headaches, cluster headaches, jaw pain, facial pain) are thought to be due to triggers creating a hyperexcitability state of nerves releasing inflammatory mediators such as histamine and serotonin. For this reason, headaches can be reduced or relieved by administering the above-described carbon dioxide treatment. Epilepsy, also a nervous hyperexcitability state, is known to be a comorbid disease to headaches and antiepileptic medications are used for migraine prevention. For this reason, epilepsy can be reduced or relieved by administering the above-described carbon dioxide treatment. […] Furthermore, other gases such as nitric oxide, oxygen, helium, and others may be administered similarly as therapeutic gases via the convenient hand-held easily controlled dispenser.
Furthermore, it is desirable that the user be able to conveniently but precisely and controllably select a rate and duration of carbon dioxide flow that lies between the lower limit of effectiveness and the upper limit of tolerance. […] Flows as low as 1 cc/sec for 1-2 seconds into the nose are effective for suppression of onset of acute allergic symptoms, whereas flows of 4-5 cc/sec for 5-10 seconds are typically selected for optimum relief from a mild chronic allergy attack. For severely inflamed mucosa and/or for injection into the mouth, flows as high as 10 cc/sec or higher for as long as 15 seconds or longer often are selected for optimum relief. For the treatment of tension and migraine headaches, the flow durations can be substantially longer, as generally set forth in the Dosage Guideline (Table I) above.
At low flow rates, the presence of the carbon dioxide produces a “tingling” sensation similar to that produced during drinking of carbonated beverages that inadvertently enter the nasal passages e.g., “bubbles up the nose”. This is the effective rate and the tingling is a welcome sensation because it usually coincides with immediate relief of symptoms. Above a certain subjectively determined flow rate the sensation becomes unpleasant, which may be described as a “stinging” or “burning” sensation. At a still higher flow rate (maximum tolerable rate), the stinging sensation becomes intolerable and subjects remove the device from their nostril. […] More typically, an injection rate of up to 10 cc/sec can be tolerated for 5 seconds or more into the nose by most users and into the mouth by almost all users. It must be noted, however, that the tolerance level depends strongly on the sequential phase of the application and on the degree of inflammation and/or pain at that phase. […]

O=C=O [carbon dioxide]
tolerance level (a few individuals, a second or less of injection into the nose): 1-2 cc/sec | suppression of onset of acute irritation of the mucosa (bathing mucous membrane of nose, nasal passages and mouth with gaseous carbon dioxide): times as short as one second can suppress the onset of acute irritation of the mucosa | effective flow (for 1-2 seconds into the nose, suppression of onset of acute allergic symptoms): ≥ 1 cc/sec | flow typically selected for optimum relief (for 5-10 seconds, mild chronic allergy attack): 4-5 cc/sec | tolerated injection rate (for 5 seconds or more, into the nose by most users and into the mouth by almost all users): up to 10 cc/sec | flow often selected for optimum relief (severely inflamed mucosa and/or injection into the mouth, for as long as 15 seconds or longer): ≥ 10 cc/sec | tolerance level (typically, at the onset of the first carbon dioxide injection): < 3 cc/sec
